This experiment concerns HIV-1 (IIIB) in MT-4 cells. The experiment can be described thus: MT-4 HIV assay. In kind it is cell-based. To be noted: Human immunodeficiency virus 1, MT4, 120 h. The essentials: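 Antiviral activity was read by Cell Titer Glo after a 5-day, 37 °C culture of MT-4 cells pre-infected with a 1:250 dilution of HIV-1 (IIIB). Compounds were tested as threefold dilution series in complete RPMI. Controls were no drug, mock infection and 5 uM AZT.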

[1] abbreviates: HIV-1 (IIIB), MT-4 cells, 5 days, Cell Titer Glo, read-out: EC50.

EC50 data for 13 compounds are collected here from patent publication US10294234B2, “HIV inhibitor compounds” (priority 2017, dated 2019).

SMILES strings stand for the structures. Read-outs that look alike come from different tables or passages of the source.

The EC50 is the concentration at which the effect is half-maximal. For `COC(=O)N[C@H](C(=O)N[C@@H](Cc1ccc(-c2cnc(N3C[C@H]4C[C@@H]3CN4C3COC3)nc2)cc1)[C@@H](O)CN(Cc1c(F)cc(-c2ccn(CC(F)F)n2)cc1F)NC(=O)[C@@H](NC(=O)OC)C(C)(C)C(F)(F)F)C(C)(C)C(F)(F)F` [Example 191, Methyl ((5S,8S,9S,14S)-11-(4-(1-(2,2-difluoroethyl)-1H-pyrazol-3-yl)-2,6-difluorobenzyl)-16,16,16-trifluoro-9-hydroxy-15,15-dimethyl-8-(4-(2-((1R,4R)-5-(oxetan-3-yl)-2,5-diazabicyclo[2.2.1]heptan-2-yl)pyrimidin-5-yl)benzyl)-3,6,13-trioxo-5-(1,1,1-trifluoro-2-methylpropan-2-yl)-2-oxa-4,7,11,12-tetraazahexadecan-14-yl)carbamate], the EC50 is 17.4 nM.

For the compound `COC(=O)N[C@H](C(=O)N[C@@H](Cc1ccc(-c2cnn(C(F)F)c2)cc1)[C@@H](O)CN(Cc1c(F)cc(-c2cnn(C(F)F)c2)cc1F)NC(=O)[C@@H](NC(=O)OC)C(C)(C)C(F)(F)F)C(C)(C)C(F)(F)F` [Example 211, Methyl ((5S,8S,9S,14S)-11-(4-(1-(difluoromethyl)-1H-pyrazol-4-yl)-2,6-difluorobenzyl)-8-(4-(1-(difluoromethyl)-1H-pyrazol-4-yl)benzyl)-16,16,16-trifluoro-9-hydroxy-15,15-dimethyl-3,6,13-trioxo-5-(1,1,1-trifluoro-2-methylpropan-2-yl)-2-oxa-4,7,11,12-tetraazahexadecan-14-yl)carbamate], the EC50 under setting [1] was found to be 5.75 nM.

For the compound `COC(=O)N[C@H](C(=O)NN(Cc1c(F)cc(-c2cn(C(F)F)cn2)cc1F)C[C@H](O)[C@H](Cc1ccc(-c2cnc(N3CC4CCC(C3)N4C3COC3)nc2)cc1)NC(=O)[C@@H](NC(=O)OC)C(C)(C)C(F)(F)F)C(C)(C)C` [Example 190, methyl ((5S,8S,9S,14S)-11-(4-(1-(difluoromethyl)-1H-imidazol-4-yl)-2,6-difluorobenzyl)-9-hydroxy-15,15-dimethyl-8-(4-(2-(8-(oxetan-3-yl)-3,8-diazabicyclo[3.2.1]octan-3-yl)pyrimidin-5-yl)benzyl)-3,6,13-trioxo-5-(1,1,1-trifluoro-2-methylpropan-2-yl)-2-oxa-4,7,11,12-tetraazahexadecan-14-yl)carbamate], the 50% effective concentration (EC50) under setting [1] was determined as 7.06 nM.

In the case of `CC(=O)N[C@H](C(=O)N[C@@H](Cc1ccc(C#Cc2ccc(N3CC4CCC(C3)N4C3COC3)nc2)cc1)[C@@H](O)CN(Cc1c(F)cc(-c2ccn(C(F)F)n2)cc1F)NC(=O)[C@@H](NC(C)=O)C(C)(C)C(F)(F)F)C(C)(C)C(F)(F)F` [Example 182, (2S)-2-acetamido-N-((2S,3S)-4-(2-((S)-2-acetamido-4,4,4-trifluoro-3,3-dimethylbutanoyl)-1-(4-(1-(difluoromethyl)-1H-pyrazol-3-yl)-2,6-difluorobenzyl)hydrazinyl)-3-hydroxy-1-(4-((6-(8-(oxetan-3-yl)-3,8-diazabicyclo[3.2.1]octan-3-yl)pyridin-3-yl)ethynyl)phenyl)butan-2-yl)-4,4,4-trifluoro-3,3-dimethylbutanamide], under setting [1], the EC50 was determined as 8.82 nM. The same measure, in the same setting: the same measure for `COC(=O)N[C@H](C(=O)N[C@@H](Cc1ccc(C#Cc2cnc(N3CC4CCC(C3)N4C3COC3)cc2C)cc1)[C@@H](O)CN(Cc1c(F)cc(-c2ccn(C(F)F)n2)cc1F)NC(=O)[C@@H](NC(=O)OC)C(C)(C)C(F)(F)F)C(C)(C)C(F)(F)F` [Example 151, Methyl ((5S,8S,9S,14S)-11-(4-(1-(difluoromethyl)-1H-pyrazol-3-yl)-2,6-difluorobenzyl)-16,16,16-trifluoro-9-hydroxy-15,15-dimethyl-8-(4-((4-methyl-6-(8-(oxetan-3-yl)-3,8-diazabicyclo[3.2.1]octan-3-yl)pyridin-3-yl)ethynyl)benzyl)-3,6,13-trioxo-5-(1,1,1-trifluoro-2-methylpropan-2-yl)-2-oxa-4,7,11,12-tetraazahexadecan-14-yl)carbamate]: 4.82 nM. Still for that read-out and setting: for `COC(=O)N[C@H](C(=O)N[C@@H](Cc1ccc(C#Cc2ccc(N3CC4CCC(C3)N4C3COC3)nc2)cc1)[C@@H](O)CN(Cc1ccc(-c2ccccn2)cc1Cl)NC(=O)[C@@H](NC(=O)OC)C(C)(C)C(F)(F)F)C(C)(C)C(F)(F)F` [Example 148, Methyl ((5S,8S,9S,14S)-11l-(2-chloro-4-(pyridin-2-yl)benzyl)-16,16,16-trifluoro-9-hydroxy-15,15-dimethyl-8-(4-((6-(8-(oxetan-3-yl)-3,8-diazabicyclo[3.2.1]octan-3-yl)pyridin-3-yl)ethynyl)benzyl)-3,6,13-trioxo-5-(1,1,1-trifluoro-2-methylpropan-2-yl)-2-oxa-4,7,11,12-tetraazahexadecan-14-yl)carbamate] the value was 6.95 nM; for `COC(=O)N[C@H](C(=O)N[C@@H](Cc1ccc(C#Cc2ccc(N3CC4CCC(C3)N4C(=O)[C@@H]3CCCO3)nc2)cc1)[C@@H](O)CN(Cc1c(F)cc(-c2ccn(C)n2)cc1F)NC(=O)[C@@H](NC(=O)OC)C(C)(C)C)C(C)(C)C` [Example 227, Methyl ((5S,8S,9S,14S)-5-(tert-butyl)-11-(2,6-difluoro-4-(1-methyl-1H-pyrazol-3-yl)benzyl)-9-hydroxy-15,15-dimethyl-3,6,13-trioxo-8-(4-((6-(8-((S)-tetrahydrofuran-2-carbonyl)-3,8-diazabicyclo[3.2.1]octan-3-yl)pyridin-3-yl)ethynyl)benzyl)-2-oxa-4,7,11,12-tetraazahexadecan-14-yl)carbamate], 2.9 nM; for `COC(=O)N[C@H](C(=O)NN(Cc1ccc(-c2cnn(C3CC3)c2)cc1)C[C@H](O)[C@H](Cc1ccc(C#Cc2ccc(N3CC4CCC(C3)N4C3COC3)nc2)cc1)NC(=O)[C@@H](NC(=O)OC)C(C)(C)C(F)(F)F)C(C)(C)C` [Example 117, Methyl ((5S,8S,9S,14S)-11-(4-(1-cyclopropyl-1H-pyrazol-4-yl)benzyl)-9-hydroxy-15,15-dimethyl-8-(4-((6-(8-(oxetan-3-yl)-3,8-diazabicyclo [3.2.1]octan-3-yl)pyridin-3-yl)ethynyl)benzyl)-3,6,13-trioxo-5-(1,1,1-trifluoro-2-methylpropan-2-yl)-2-oxa-4,7,11,12-tetraazahexadecan-14-yl)carbamate], 4.15 nM. Still for that read-out and setting: the same measure for `COC(=O)N[C@H](C(=O)N[C@@H](Cc1ccc(C#Cc2cnc(N3C[C@H]4C[C@@H]3CN4C3COC3)nc2)cc1)[C@@H](O)CN(Cc1ccc(-c2ccn(C3CC3)n2)cc1)NC(=O)[C@@H](NC(=O)OC)C(C)(C)C(F)(F)F)C(C)(C)C(F)(F)F` [Example 30, methyl ((5S,8S,9S,14S)-11-(4-(1-cyclopropyl-1H-pyrazol-3-yl)benzyl)-16,16,16-trifluoro-9-hydroxy-15,15-dimethyl-8-(4-((2-((1R,4R)-5-(oxetan-3-yl)-2,5-diazabicyclo[2.2.1]heptan-2-yl)pyrimidin-5-yl)ethynyl)benzyl)-3,6,13-trioxo-5-(1,1,1-trifluoro-2-methylpropan-2-yl)-2-oxa-4,7,11,12-tetraazahexadecan-14-yl)carbamate]: 4.44 nM. The compound `COC(=O)N[C@H](C(=O)N[C@H](C(=O)N[C@@H](Cc1ccc(C#Cc2cnc(N3CC4CC(C3)N4C3COC3)nc2)cc1)[C@@H](O)CN(Cc1c(F)cc(-c2ccn(CC(F)F)n2)cc1F)NC(=O)[C@@H](NC(=O)OC)C(C)(C)C)C(C)(C)C)C(C)(C)C` [Example 223, Methyl ((5S,8S,11S,12S,17S)-5,8-di-tert-butyl-14-(4-(1-(2,2-difluoroethyl)-1H-pyrazol-3-yl)-2,6-difluorobenzyl)-12-hydroxy-18,18-dimethyl-11-(4-((2-(6-(oxetan-3-yl)-3,6-diazabicyclo[3.1.1]heptan-3-yl)pyrimidin-5-yl)ethynyl)benzyl)-3,6,9,16-tetraoxo-2-oxa-4,7,10,14,15-pentaazanonadecane-17-yl)carbamate] returned an EC50 of 12.9 nM. Still for that read-out and setting: the same measure for `COC(=O)N[C@H](C(=O)N[C@@H](Cc1ccc(C#Cc2ccc(N3CC[N+]([O-])(C4COC4)CC3)nc2)cc1)[C@@H](O)CN(Cc1c(F)cc(-c2ccn(C(F)F)n2)cc1F)NC(=O)[C@@H](NC(=O)OC)C(C)(C)C(F)(F)F)C(C)(C)C(F)(F)F` [Example 54, 4-(5-((4-((2S,3S)-4-(1-(4-(1-(difluoromethyl)-1H-pyrazol-3-yl)-2,6-difluorobenzyl)-2-((S)-4,4,4-trifluoro-2-((methoxycarbonyl)amino)-3,3-dimethylbutanoyl)hydrazinyl)-3-hydroxy-2-((S)-4,4,4-trifluoro-2-((methoxycarbonyl)amino)-3,3-dimethylbutanamido)butyl)phenyl)ethynyl)pyridin-2-yl)-1-(oxetan-3-yl)piperazine 1-oxide]: 8.47 nM. Consider `COC(=O)N[C@H](C(=O)N[C@@H](Cc1ccc(C#Cc2ccc(N3CC4CCC(C3)N4C3COC3)nc2)cc1)[C@@H](O)CN(Cc1ccc(-c2ccn(C3CC3)n2)cc1)NC(=O)[C@@H](NC(=O)OC)C(C)(C)C(F)(F)F)C(C)(C)C(F)(F)F` [Example 34, Methyl ((5S,8S,9S,14S)-11-(4-(1-cyclopropyl-1H-pyrazol-3-yl)benzyl)-16,16,16-trifluoro-9-hydroxy-15,15-dimethyl-8-(4-((6-(8-(oxetan-3-yl)-3,8-diazabicyclo [3.2.1]octan-3-yl)pyridin-3-yl)ethynyl)benzyl)-3,6,13-trioxo-5-(1,1,1-trifluoro-2-methylpropan-2-yl)-2-oxa-4,7,11,12-tetraazahexadecan-14-yl)carbamate], for which the EC50 under setting [1] was determined as 5.26 nM. On the same count and under the same terms, for `COC(=O)N[C@H](C(=O)NN(Cc1ccc(-c2cnn(C(F)F)c2)cc1F)C[C@H](O)[C@H](Cc1ccc(C#Cc2ccc(N3CC4CCC(C3)N4C3COC3)nc2)cc1)NC(=O)[C@@H](NC(=O)OC)C(C)(C)C(F)(F)F)C(C)(C)C` [Example 230, methyl ((5S,8S,9S,14S)-11-(4-(1-(difluoromethyl)-1H-pyrazol-4-yl)-2-fluorobenzyl)-9-hydroxy-15,15-dimethyl-8-(4-((6-(8-(oxetan-3-yl)-3,8-diazabicyclo[3.2.1]octan-3-yl)pyridin-3-yl)ethynyl)benzyl)-3,6,13-trioxo-5-(1,1,1-trifluoro-2-methylpropan-2-yl)-2-oxa-4,7,11,12-tetraazahexadecan-14-yl)carbamate] the value was 3.97 nM.
